This is an account of results in article PMC5924706 (ACS chemical neuroscience, 2017).

Like-named read-outs stand apart in the source and are kept apart here.

Experiment [1] has as its system GluN2C-expressing cultured rat cortical neurons. The experiment is described as follows: Agonist-evoked NMDAR currents in transfected cultured cortical neurons. The settings on record: 20 μM compound; NMDA and glycine pressure pulses.
The subject of experiment [2] is cultured rat cortical neurons transfected with GFP alone. The description is as above. The settings on record: 20 μM compound; NMDA and glycine pressure pulses.
The next experiment deals with GluN2C/2D over GluN2A/2B. The conditions noted are these: cited from earlier work.
The target of a further experiment is GluN1/GluN2D receptors (Rattus norvegicus, UniProt Q62645). The settings on record: for agonist pEC50 at GluN1/GluN2D: mean (95% CI); for EC50: read-out: agonist EC50 at GluN1/GluN2D.
Sequence of GluN1/GluN2D receptors (Q62645 28-1323, other chains not shown): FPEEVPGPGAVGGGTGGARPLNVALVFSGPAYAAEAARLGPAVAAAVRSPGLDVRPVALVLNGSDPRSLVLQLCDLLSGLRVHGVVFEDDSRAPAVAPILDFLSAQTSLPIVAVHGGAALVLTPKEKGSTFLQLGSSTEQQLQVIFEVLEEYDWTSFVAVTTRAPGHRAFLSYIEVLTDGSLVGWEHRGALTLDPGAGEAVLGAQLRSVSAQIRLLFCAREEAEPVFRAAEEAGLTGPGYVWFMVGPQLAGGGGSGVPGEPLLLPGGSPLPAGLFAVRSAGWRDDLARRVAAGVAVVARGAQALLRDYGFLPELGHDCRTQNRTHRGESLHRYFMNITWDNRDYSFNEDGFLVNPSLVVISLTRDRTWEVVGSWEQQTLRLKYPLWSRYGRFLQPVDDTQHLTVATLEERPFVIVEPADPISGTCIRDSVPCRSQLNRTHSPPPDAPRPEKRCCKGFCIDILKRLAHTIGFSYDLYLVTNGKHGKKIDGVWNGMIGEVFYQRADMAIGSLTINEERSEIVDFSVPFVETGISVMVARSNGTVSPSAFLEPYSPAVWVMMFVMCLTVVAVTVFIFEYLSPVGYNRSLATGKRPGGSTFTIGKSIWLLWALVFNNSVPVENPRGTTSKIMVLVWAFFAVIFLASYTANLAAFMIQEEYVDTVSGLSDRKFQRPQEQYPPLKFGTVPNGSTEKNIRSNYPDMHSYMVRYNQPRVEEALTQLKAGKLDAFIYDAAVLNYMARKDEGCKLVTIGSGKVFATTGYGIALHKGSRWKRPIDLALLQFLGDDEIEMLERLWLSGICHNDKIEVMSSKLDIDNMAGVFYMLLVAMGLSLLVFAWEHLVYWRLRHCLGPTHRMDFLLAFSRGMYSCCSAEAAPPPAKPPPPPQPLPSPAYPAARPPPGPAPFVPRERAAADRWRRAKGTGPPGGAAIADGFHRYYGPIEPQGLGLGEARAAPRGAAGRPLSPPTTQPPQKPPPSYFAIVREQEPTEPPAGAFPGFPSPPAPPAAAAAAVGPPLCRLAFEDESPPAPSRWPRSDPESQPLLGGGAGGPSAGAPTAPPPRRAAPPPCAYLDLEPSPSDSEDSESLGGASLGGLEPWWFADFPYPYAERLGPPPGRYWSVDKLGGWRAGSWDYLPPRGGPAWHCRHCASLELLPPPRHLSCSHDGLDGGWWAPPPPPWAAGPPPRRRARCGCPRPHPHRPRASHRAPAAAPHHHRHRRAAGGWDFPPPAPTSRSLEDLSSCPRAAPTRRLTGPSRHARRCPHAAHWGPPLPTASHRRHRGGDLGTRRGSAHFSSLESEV

Regarding `COc1ccc(OCC2c3cc(OC)c(OC)cc3CCN2C(=O)c2cccc(Cl)c2)cc1` (centres unmarked) [CIQ], in experiment [1], the “agonist-evoked response, % of control, GluN2C-expressing neurons” value turned out to be 145 ± 5.9%. Further, in experiment [2], the “agonist-evoked response, % of control, neurons transfected with GFP alone” value is on record as 98 ± 1.8%.

On to `Cc1ccc2[nH]c(=O)c(C3=NN(C(=O)CCC(=O)O)C(c4ccc(Br)cc4)C3)c(-c3ccccc3)c2c1` (centres unmarked) [DQP-1105], for which the “selectivity for GluN2C/2D over GluN2A/2B” value in the experiment on GluN2C/2D over GluN2A/2B was “up to 50 fold”.

As to `COc1ccc2nc(/C=C/c3cccc([N+](=O)[O-])c3)n(-c3ccc(C(=O)O)cc3)c(=O)c2c1` [QNZ46], the “selectivity for GluN2C/2D over GluN2A/2B” value with GluN2C/2D over GluN2A/2B is reported as “up to 50 fold”.

On to `N[C@@H](CCC(=O)O)C(=O)O` [glutamate], for which, on GluN1/GluN2D receptors (absence of NAB-14), the “agonist pEC50 at GluN1/GluN2D” value was −6.22 (−6.29, −6.14) and the EC50 worked out at 610 nM. Also, at GluN1/GluN2D receptors (presence of 3 μM NAB-14), the “agonist pEC50 at GluN1/GluN2D” value is reported as −6.15 (−6.36, −5.93) and the EC50 came out at 710 nM.
